From patent US8846947B2, “Benzimidazoles and related analogs as sirtuin modulators” (GlaxoSmithKline LLC, priority 2008, dated 2014) come the findings set out here.

The assay has as its target T1, SIRT1 (Homo sapiens, UniProt Q96EB6).
T1 sequence (Q96EB6 1-747): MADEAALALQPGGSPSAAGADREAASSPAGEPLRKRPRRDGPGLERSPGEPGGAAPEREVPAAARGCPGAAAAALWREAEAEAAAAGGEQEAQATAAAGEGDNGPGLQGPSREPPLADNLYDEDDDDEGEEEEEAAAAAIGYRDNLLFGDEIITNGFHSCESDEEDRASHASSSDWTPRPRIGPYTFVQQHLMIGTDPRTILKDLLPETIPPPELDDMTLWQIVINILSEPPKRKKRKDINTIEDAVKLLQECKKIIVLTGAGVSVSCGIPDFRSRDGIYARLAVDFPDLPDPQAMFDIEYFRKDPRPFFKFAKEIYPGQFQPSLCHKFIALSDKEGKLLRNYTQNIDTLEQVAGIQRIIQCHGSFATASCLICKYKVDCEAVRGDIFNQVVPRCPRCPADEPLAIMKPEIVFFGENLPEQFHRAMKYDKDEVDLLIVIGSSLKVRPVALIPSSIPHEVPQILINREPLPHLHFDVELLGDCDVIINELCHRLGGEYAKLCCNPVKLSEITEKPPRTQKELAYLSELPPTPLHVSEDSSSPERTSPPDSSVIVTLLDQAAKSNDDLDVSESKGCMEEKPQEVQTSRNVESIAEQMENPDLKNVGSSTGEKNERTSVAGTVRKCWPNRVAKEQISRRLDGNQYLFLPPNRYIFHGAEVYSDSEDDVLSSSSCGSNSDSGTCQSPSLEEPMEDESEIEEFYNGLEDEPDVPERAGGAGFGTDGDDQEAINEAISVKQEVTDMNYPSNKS
Put plainly: Mass spectrometry based SIRT1 deacetylase activation assay (acetylated p53-derived peptide substrate). The assay is classed as biochemical.

Setting [1] is: 0.5 μM peptide substrate, 120 μM βNAD+, 10 nM SIRT1, 25 min at 25° C.
The mark [2] stands for this setting: 0.5 μM peptide substrate, 120 μM βNAD+, 10 nM SIRT1, 25 min at 25° C., read-out: EC1.5.
Where [3] appears, read: 0.5 μM peptide substrate, 120 μM βNAD+, 10 nM SIRT1, 25 minutes at 25° C.

Read-outs that look alike come from different tables or passages of the source.

For `O=C(Nc1nccs1)c1cccc2[nH]c(-c3ccc(N4CCOCC4)cc3C(F)(F)F)nc12` [Compound 414], the “Fold Act. (percent maximum fold activation)” value under setting [1] is recorded as “A (Fold activation >200%)”. Further, the EC1.5 under setting [2] was less than 1000 nM.
Taken in the same sequence, the figures for `O=C(Nc1cccnn1)c1cccc2[nH]c(-c3ccc(N4CCOCC4)cc3C(F)(F)F)nc12` [Compound 550] were “A (Fold activation >200%)” and less than 1000 nM.
With `O=C(Nc1ccccn1)c1cc(N2CCOCC2)cc2[nH]c(-c3ccccc3C(F)F)nc12` [Compound 736], under setting [3], the EC1.5 result was “A (EC1.5<1.0 uM)” and the “Fold Act. (percent maximum fold activation)” value was “A (Fold activation >200%)”.
Turning to `O=C(Nc1ccccn1)c1cccc2[nH]c(-c3ccc(N4CC[C@H](F)C4)cc3C(F)(F)F)nc12` [Compound 607], under setting [3], the EC1.5 result was “A (EC1.5<1.0 uM)” and the “Fold Act. (percent maximum fold activation)” value is recorded as “A (Fold activation >200%)”.
Turning to `Cc1cc(NC(=O)c2cccc3[nH]c(-c4cc(F)ccc4C(F)(F)F)nc23)n(C)n1` [Compound 380], the EC1.5 result was “A (EC1.5<1.0 uM)” and the “Fold Act. (percent maximum fold activation)” value is on record as “A (Fold activation >200%)”.
In the case of `Cc1cc(Cl)cc(-c2nc3c(C(=O)Nc4ccccn4)cccc3[nH]2)c1OCCN1CCOCC1` [Compound 506], under setting [1], the “Fold Act. (percent maximum fold activation)” value is on record as “B (Fold Activation <200%)”. The EC1.5 under setting [2] was 1000 to 25000 nM.
`O=C(Nc1ccc(CN2CCCC2)cc1)c1cccc2[nH]c(-c3ccc(F)cc3C(F)(F)F)nc12` [Compound 813]: under setting [3], the EC1.5 result was “A (EC1.5<1.0 uM)” and the “Fold Act. (percent maximum fold activation)” value is “A (Fold activation >200%)”.
Turning to `O=C(Nc1cccnc1)c1cc(N2CCOCC2)cc2[nH]c(-c3ccc(F)cc3C(F)F)nc12` [Compound 751], under setting [3], the EC1.5 entry was “A (EC1.5<1.0 uM)” and the “Fold Act. (percent maximum fold activation)” value is reported as “A (Fold activation >200%)”.
With `O=C(Nc1ccccn1)c1cncc2[nH]c(-c3ccc(OC[C@@H](O)CO)cc3C(F)(F)F)nc12` [Compound 760], under setting [3], the EC1.5 entry is “A (EC1.5<1.0 uM)” and the “Fold Act. (percent maximum fold activation)” value is given as “A (Fold activation >200%)”.
The corresponding values for `O=C(Nc1cccnc1)c1cc(N2CCOCC2)cc2[nH]c(-c3cc(F)ccc3C(F)(F)F)nc12` [Compound 646] are “A (EC1.5<1.0 uM)” and “A (Fold activation >200%)”.
With `CN1CCN(c2cccc(-c3nc4c(C(=O)Nc5nccs5)cccc4[nH]3)c2)CC1` [Compound 527], the “Fold Act. (percent maximum fold activation)” value under setting [1] is “A (Fold activation >200%)”. The EC1.5 under setting [2] is less than 1000 nM.
In the case of `O=C(Nc1cccnc1)c1cc(F)cc2[nH]c(-c3ccc(OC[C@H](O)CO)cc3C(F)F)nc12` [Compound 829], under setting [3], the EC1.5 entry was “A (EC1.5<1.0 uM)” and the “Fold Act. (percent maximum fold activation)” value is recorded as “A (Fold activation >200%)”.
Take `O=C(Nc1cccnc1)c1cccc2[nH]c(-c3cc(N4CCOCC4)ccc3C(F)(F)F)nc12` [Compound 450, 2-(5-morpholino-2-(trifluoromethyl)phenyl)-N-(pyridin-3-yl)-1H-benzo[d]imidazole-4-carboxamide]: the “Fold Act. (percent maximum fold activation)” value under setting [1] is on record as “A (Fold activation >200%)”. Besides, under setting [2], the EC1.5 is less than 1000 nM.
For `CC(C)(C)c1nnc(NC(=O)c2cccc3[nH]c(-c4cccc(C(F)(F)F)c4)nc23)s1` [Compound 240], the EC1.5 entry is given as “C (EC1.5 >25 uM)” and the “Fold Act. (percent maximum fold activation)” value is on record as “B (Fold Activation <200%)”.
On to `O=C(Nc1cccnc1)c1cccc2[nH]c(-c3ccc(N4CCCC4)cc3C(F)(F)F)nc12` [Compound 573], for which the “Fold Act. (percent maximum fold activation)” value under setting [1] is reported as “A (Fold activation >200%)”. In addition, under setting [2], the EC1.5 was less than 1000 nM.
Taken in the same sequence, the figures for `CS(=O)(=O)c1ccc(-c2nc3c(C(=O)Nc4ccccn4)cccc3[nH]2)cc1` [Compound 406] were “A (Fold activation >200%)” and 1000 to 25000 nM.
Regarding `O=C(Nc1nc2ccccc2s1)c1cccc2[nH]c(-c3cccc(C(F)(F)F)c3)nc12` [Compound 284], the EC1.5 entry is “B (EC1.5 1-25 uM)” and the “Fold Act. (percent maximum fold activation)” value is “A (Fold activation >200%)”.
As to `Cc1ccc(NC(=O)c2cccc3[nH]c(-c4ccc(CN5CCCC5)cc4C(F)(F)F)nc23)cc1` [Compound 870, 2-(4-(pyrrolidin-1-ylmethyl)-2-(trifluoromethyl)phenyl)-N-p-tolyl-1H-benzo[d]imidazole-4-carboxamide], under setting [3], the EC1.5 entry is recorded as “A (EC1.5<1.0 uM)” and the “Fold Act. (percent maximum fold activation)” value is listed as “A (Fold activation >200%)”.
Consider `O=C(Nc1cccnc1)c1cccc2[nH]c(-c3ccnc(N4CCCCC4)c3)nc12` [Compound 373], for which the EC1.5 entry is given as “B (EC1.5 1-25 uM)” and the “Fold Act. (percent maximum fold activation)” value was “A (Fold activation >200%)”.
On to `O=C(Nc1nccs1)c1cccc2[nH]c(-c3ccccc3OCCN3CC[C@@H](F)C3)nc12` [Compound 507], for which, under setting [1], the “Fold Act. (percent maximum fold activation)” value is on record as “B (Fold Activation <200%)”. In addition, the EC1.5 under setting [2] was in the range of 1000 to 25000 nM.
For the compound `Cc1cc(-c2nc3c(C(=O)Nc4nc(CN5CCOCC5)cs4)cccc3[nH]2)ccn1` [Compound 844], under setting [3], the EC1.5 entry is given as “A (EC1.5<1.0 uM)” and the “Fold Act. (percent maximum fold activation)” value is “A (Fold activation >200%)”.
The corresponding values for `O=C(Nc1ccccn1)c1cc(N2CCCC2)cc2[nH]c(-c3ccccc3C(F)F)nc12` [Compound 791] are “A (EC1.5<1.0 uM)” and “A (Fold activation >200%)”.
Taken in the same sequence, the figures for `O=C(Nc1cccnc1)c1cc(N2CCOCC2)cc2[nH]c(-c3ccccc3C(F)F)nc12` [Compound 735] were “A (EC1.5<1.0 uM)” and “A (Fold activation >200%)”.
Turning to `O=C(Nc1nccs1)c1cccc2[nH]c(-c3ccccc3OCCN3CCCC(F)(F)C3)nc12` [Compound 611], under setting [3], the EC1.5 result was “C (EC1.5 >25 uM)” and the “Fold Act. (percent maximum fold activation)” value was “B (Fold Activation <200%)”.
Take `O=C(NC1CCNCC1)c1cccc2[nH]c(-c3cccc(C(F)(F)F)c3)nc12` [Compound 298]: the EC1.5 result was “B (EC1.5 1-25 uM)” and the “Fold Act. (percent maximum fold activation)” value is recorded as “A (Fold activation >200%)”.
`CS(=O)(=O)c1ccccc1-c1nc2c(C(=O)Nc3ccccn3)cccc2[nH]1` [Compound 519]: the “Fold Act. (percent maximum fold activation)” value under setting [1] is on record as “A (Fold activation >200%)”. In addition, under setting [2], the EC1.5 was less than 1000 nM.
Take `O=C(Nc1ccccn1)c1cccc2[nH]c(-c3ccc(CN4CCCC4)cc3C(F)(F)F)nc12` [Compound 838, N-(pyridin-2-yl)-2-(4-(pyrrolidin-1-ylmethyl)-2-(trifluoromethyl)phenyl)-1H-benzo[d]imidazole-4-carboxamide]: under setting [3], the EC1.5 entry was “A (EC1.5<1.0 uM)” and the “Fold Act. (percent maximum fold activation)” value is reported as “A (Fold activation >200%)”.
As for `Cc1cc(NC(=O)c2cccc3[nH]c(-c4cccc(N5CCOCC5)c4)nc23)no1` [Compound 469], the “Fold Act. (percent maximum fold activation)” value under setting [1] was “A (Fold activation >200%)”. Moreover, the EC1.5 under setting [2] lay in the range of 1000 to 25000 nM.
Take `Cc1cccc(-c2nc3c(C(=O)Nc4ccccn4)cccc3[nH]2)c1OCCN1CCOCC1` [Compound 627]: under setting [3], the EC1.5 entry is “B (EC1.5 1-25 uM)” and the “Fold Act. (percent maximum fold activation)” value is listed as “A (Fold activation >200%)”.
In the case of `O=C(Nc1nccs1)c1cncc2[nH]c(-c3ccc(OC[C@@H](O)CO)cc3C(F)(F)F)nc12` [Compound 758], under setting [3], the EC1.5 result is given as “A (EC1.5<1.0 uM)” and the “Fold Act. (percent maximum fold activation)” value is given as “A (Fold activation >200%)”.
Regarding `O=C(Nc1cccc2[nH]c(-c3cc(F)ccc3C(F)(F)F)nc12)c1cccnc1` [Compound 386], the EC1.5 entry is “B (EC1.5 1-25 uM)” and the “Fold Act. (percent maximum fold activation)” value is on record as “A (Fold activation >200%)”.
For the compound `O=C(Nc1cccc(OCC(O)CO)c1)c1cccc2[nH]c(-c3ccccc3C(F)(F)F)nc12` (stereo not drawn) [Compound 478], the “Fold Act. (percent maximum fold activation)” value under setting [1] was “A (Fold activation >200%)”. Moreover, under setting [2], the EC1.5 was less than 1000 nM.
Take `O=C(Nc1cccc(OC[C@H](O)CO)c1)c1cccc2[nH]c(-c3ccccc3C(F)F)nc12` [Compound 721]: under setting [3], the EC1.5 entry is recorded as “A (EC1.5<1.0 uM)” and the “Fold Act. (percent maximum fold activation)” value is given as “A (Fold activation >200%)”.
`O=C(Nc1nc(CN2CCOCC2)cs1)c1cccc2[nH]c(-c3cc(F)ccc3C(F)(F)F)nc12` [Compound 701]: under setting [3], the EC1.5 entry is recorded as “A (EC1.5<1.0 uM)” and the “Fold Act. (percent maximum fold activation)” value is “A (Fold activation >200%)”.
The corresponding values for `O=C(Nc1ccccn1)c1cccc2[nH]c(-c3ccccc3OCCN3CCC(F)(F)CC3)nc12` [Compound 613] are “B (EC1.5 1-25 uM)” and “B (Fold Activation <200%)”.
In the case of `O=C(NC1CCOC1=O)c1cccc2[nH]c(-c3ccc(Cl)cc3C(F)(F)F)nc12` (stereo not drawn) [Compound 355], the EC1.5 result is “B (EC1.5 1-25 uM)” and the “Fold Act. (percent maximum fold activation)” value is on record as “A (Fold activation >200%)”.
